Test results published in ChEMBL document CHEMBL1201862, “PubChem BioAssay data set” (2004).
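Step 1: Grow cells in 96-well plates. Step 2: Expose to compound for 48 hours at 5 concentrations. Step 3: Interpolate endpoints linearly; if unreached, use highest concentration. At the GI50, growth is halved.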 Active and inactive are the calls of the source. No stated cut-off is given here; in the data, active = GI50 up to about 1.1 µM and inactive = higher.

Assays:
Test in all cases: inhibition of tumour cell growth, NCI panel, 48 h
[1] = test system: 786-0
[2] = test system: ACHN
[3] = test system: DU-145
[4] = test system: HCT-116
[5] = test system: HOP-62
[6] = test system: HT-29
[7] = test system: K562
[8] = test system: KM12
[9] = test system: MCF7
[10] = test system: MDA-MB-231
[11] = test system: Malme-3M
[12] = test system: NCI-H23
[13] = test system: NCI-H460
[14] = test system: OVCAR-5
[15] = test system: OVCAR-8
[16] = test system: PC-3
[17] = test system: SK-MEL-28
[18] = test system: SN12C
[19] = test system: UACC-257
[20] = test system: UACC-62

Measured: GI50

O=C(O)CCC1(c2ccccc2)NC(=O)NC1=O (stereo not given)
inactive: [1] > 100 µM | [2] > 100 µM | [3] > 100 µM | [4] > 100 µM | [5] > 100 µM | [6] > 100 µM | [7] > 100 µM | [8] > 100 µM | [9] > 100 µM | [10] > 100 µM | [11] > 100 µM | [12] > 100 µM | [13] > 100 µM | [14] > 100 µM | [15] > 100 µM | [16] > 100 µM | [17] > 100 µM | [18] > 100 µM | [19] > 100 µM | [20] > 100 µM

CN1CCN([C@H]2C[C@H]3[C@@H]4CC=C5C[C@@H](O)CC[C@]5(C)[C@H]4CC[C@]3(C)[C@H]2O)CC1
inactive: [1] 17.8 µM | [2] > 100 µM | [3] > 100 µM | [4] 30.7 µM | [5] > 51.9 µM | [6] 7.29 µM | [7] 19 µM | [8] > 53.8 µM | [9] > 45.6 µM | [10] > 48.3 µM | [11] > 43.2 µM | [12] > 100 µM | [13] > 42.7 µM | [14] > 47.5 µM | [15] > 42.8 µM | [16] > 51.2 µM | [17] 27.4 µM | [18] > 100 µM | [19] > 49 µM | [20] > 44 µM

OC1C[C@H](c2ccccc2)C2(C(O)c3ccccc3C2O)[C@@H](c2ccccc2)C1 (stereo not given in full)
inactive: [1] > 100 µM | [2] > 100 µM | [3] > 100 µM | [4] > 100 µM | [5] > 100 µM | [6] > 100 µM | [7] > 100 µM | [8] > 100 µM | [9] > 100 µM | [10] > 100 µM | [11] > 100 µM | [12] > 100 µM | [13] > 100 µM | [14] > 100 µM | [15] > 100 µM | [16] > 100 µM | [17] > 100 µM | [18] > 100 µM | [19] 32.2 µM | [20] > 100 µM

CC(C)(C)OC(=O)NC(Cc1ccc(OCc2ccccc2)cn1)C(=O)NCc1ccccc1 (stereo not given)
inactive: [1] 27.1 µM | [2] 31.3 µM | [3] 40.5 µM | [4] 26.5 µM | [5] 23.3 µM | [6] 29.9 µM | [7] 22.1 µM | [8] 29.7 µM | [9] 29.5 µM | [10] 24.6 µM | [11] 22.8 µM | [12] 17 µM | [13] 22.7 µM | [14] 38.6 µM | [15] 26.3 µM | [16] 20.4 µM | [17] 31.3 µM | [18] 28.1 µM | [19] 16.9 µM | [20] 14.5 µM

Cc1ccc(NC(=O)/C=C/c2ccccc2)c(C)c1
inactive: [1] 74.5 µM | [2] 39.6 µM | [3] > 100 µM | [4] > 100 µM | [5] 32.7 µM | [6] > 100 µM | [7] > 100 µM | [8] > 100 µM | [9] > 100 µM | [10] 52.1 µM | [11] 86.9 µM | [12] > 100 µM | [13] > 100 µM | [14] > 100 µM | [15] 37.3 µM | [16] > 100 µM | [17] > 100 µM | [18] 94.8 µM | [19] > 100 µM | [20] > 100 µM

O=[N+]([O-])c1cccc2nccc(NCCCO)c12
inactive: [1] 17.7 µM | [2] 14.3 µM | [3] 16.8 µM | [4] 13 µM | [5] 17.5 µM | [6] 6.89 µM | [7] 13.2 µM | [8] 10.8 µM | [9] 12.7 µM | [10] 23 µM | [11] 10.2 µM | [12] 12.5 µM | [13] 11 µM | [14] 20.1 µM | [15] 14.5 µM | [16] 20.7 µM | [17] 12.4 µM | [18] 14.8 µM | [19] 11.4 µM | [20] 8.57 µM

N#C/C(=C/NC(=S)NCc1ccccc1)C(N)=O
inactive: [1] > 100 µM | [2] > 100 µM | [3] > 100 µM | [4] > 100 µM | [5] > 100 µM | [6] > 100 µM | [7] > 100 µM | [8] > 100 µM | [9] > 100 µM | [10] > 100 µM | [11] > 100 µM | [12] > 100 µM | [13] > 100 µM | [14] > 100 µM | [15] > 100 µM | [16] > 100 µM | [17] > 100 µM | [18] > 100 µM | [19] > 100 µM | [20] > 100 µM
